Assay results reported in article PMC9898759, “The Saccharomyces cerevisiae Yta7 ATPase hexamer contains a unique bromodomain tier that functions in nucleosome disassembly” (The Journal of Biological Chemistry, 2022).

Tests used:
[1] = tested on: Yta7; assay: AlphaScreen binding of biotinylated H3 N-tail peptide (unmodified or acetylated) to full-length Yta7; design: species or system Saccharomyces cerevisiae; conditions: for binding to Yta7: 50 nM 10xHis-3xFlag-Yta7, 50 nM biotinylated H3 (1–22 amino acid) peptide, 50 mM Mops pH 7.4, 100 mM NaCl, BSA 0.1 mg/ml, on ice 1.5 h
Procedure: (§1) We performed AlphaScreen assays using a 6xHis detection kit (PerkinElmer). The biotinylated unmodified and the all-four-lysine acetylated H3 peptide (1–22 amino acids) were synthesized by GenScript. We individually mixed the purified 50 nM 10xHis-3xFlag-Yta7, 10xHis-3xFlag-Yta7ΔBRD, 10xHis-3xFlag-Yta7ΔBIMΔBRD, 6xHis-MBP-BIM, 6xHis-MBP-BRD, and the complex of 6xHis-MBP-BRD and MBP-BIM with 50 nM biotinylated and unmodified or acetylated H3 (1–22 amino acid) peptides, respectively, and incubated the mixtures on ice for 1.5 h with the streptavidin-coated donor beads (5 μg/ml) and nickel-chelated acceptor beads (5 μg/ml) in 50 mM Mops (pH 7.4), 100 mM NaCl, and bovine serum albumin (0.1 mg/ml). For nucleosome-binding assay, we used 50 nM 10xHis-3xFlag-Yta7 and 100 nM biotinylated human nucleosome. We incubated the mixture for 2 h on ice with the same concentration donor and acceptor beads. The donor beads contain a photosensitizer that converts ambient oxygen into short-lived singlet oxygen upon 680 nm light activation. When the acceptor beads are brought close enough to the donor beads by interaction between His-tagged proteins and biotinylated peptides, singlet oxygen can diffuse from the donor to the acceptor beads to transfer the energy to the thioxene derivatives of the acceptor beads, resulting in light emission at 520 to 620 nm range.

[2] = Malachite Green ATPase assay of Yta7; format: biochemical; conditions: Malachite Green phosphate assay, 2 mM ATP, 25 mM Hepes pH 7.6, 2 mM MgCl2, 150 mM KCl, 1 mM DTT, room temperature 1 h, A620; three independent experiments; Fig. S1C
Procedure: The Malachite Green Phosphate assay kit (Sigma–Aldrich) was used to measure the ATP hydrolysis rate of Yta7 present in different nucleotides. Yta7 was incubated in assay buffer (25 mM Hepes [pH 7.6], 2 mM MgCl2, 150 mM KCl, and 1 mM DTT) with or without histone-3 peptide (1–24 amino acids). Either 2 mM ATP or 2 mM ATPγS or 2 mM ADP (negative control) was added to initiate the reaction at room temperature for 1 h. Absorbance at 620 nm was measured in a Molecular Devices SpectraMax M2e microplate reader.

[3] = tested on: Yta7_ΔBRD; assay: AlphaScreen binding of H3 peptide to Yta7 lacking BRD; design: species or system Saccharomyces cerevisiae; conditions: 50 nM construct (954–1132 deleted), 50 nM biotinylated H3 (1–22), pH 7.4, on ice 1.5 h, n = 3, Fig. S9B
Procedure: as §1

[4] = tested on: 6xHis-MBP-BIM; assay: AlphaScreen binding of H3 peptide to MBP-fused BIM; design: species or system Saccharomyces cerevisiae; conditions: n = 3, Fig. S9D
Procedure: as §1

[5] = tested on: Yta7_ΔBIM ΔBRD; assay: AlphaScreen binding of H3 peptide to Yta7 lacking BIM and BRD; design: species or system Saccharomyces cerevisiae; conditions: 50 nM construct (320–350 and 954–1132 deleted), 50 nM biotinylated H3 (1–22), pH 7.4, on ice 1.5 h, n = 3, Fig. S9B
Procedure: as §1

[6] = tested on: complex of 6xHis-MBP-BRD and MBP-BIM; assay: AlphaScreen binding of H3 peptide to BRD and BIM together; design: species or system Saccharomyces cerevisiae
Procedure: as §1

[7] = AlphaScreen, three independent experiments in triplicate

For “24-residue H3 N-tail: unmodified H3 peptides (1–24 amino acids) (GenScript)”, the “interaction with Yta7 (24-residue H3 N-tail)” value ([1]; 24-residue H3 N-tail, Fig. S1, C and D) was “interacted with”.
With “Yta7: full-length S. cerevisiae Yta7 AAA+ ATPase hexamer, 10xHis and 3xFLAG tagged” the ATP hydrolysis [2] was “hydrolyzed ATP”.
With “acetylated H3 peptide (1–22 amino acids): biotinylated all-four-lysine acetylated H3 peptide (1–22 amino acids), synthesized by GenScript” the “binding to Yta7” value [1, 7] was “bound Yta7”.
For “unmodified H3 peptide (1–22 amino acids)”, the “binding to Yta7_ΔBRD” value [3] was “neither Yta7_ΔBRD nor Yta7_ΔBIM ΔBRD bind”, the “binding signal to BIM alone” value ([4]; 50 nM 6xHis-MBP-BIM, 50 nM biotinylated H3 (1–22), pH 7.4, on ice 1.5 h) was “weak binding signal” and the “binding signal to BIM alone relative to MBP control and BRD alone” value ([4]; 6xHis-MBP negative control, compared with 6xHis-MBP-BRD) was “above the MBP control but weaker than BRD alone”. For the same substance, the “binding to Yta7_ΔBIM ΔBRD” value [5] was “neither Yta7_ΔBRD nor Yta7_ΔBIM ΔBRD bind”, the “binding to Yta7” value [1, 7] was “bound Yta7” and the “binding signal relative to the acetylated version” value ([1]; AlphaScreen, 50 nM Yta7, 50 nM biotinylated H3 (1–22) peptides, pH 7.4, on ice 1.5 h, means of three independent experiments performed in triplicate, Fig. 2H) was “five times stronger”. For the same substance, the “affinity / binding in the presence of ADP or ATPγS” value ([1]; AlphaScreen, biotinylated H3 (1-22 aa), in the presence of ADP or ATPγS, three independent experiments in triplicate, Fig. S1E) was “unaffected”, the “relative affinity, unmodified vs acetylated H3 peptide” value ([1]; AlphaScreen, unmodified compared with acetylated H3 (1–22) peptide, qualitative, listed as unmodified peptide) was “higher affinity” and the “binding signal to BRD–BIM relative to Yta7 hexamer” value ([6]; BRD–BIM complex vs full-length Yta7 hexamer) was “an order of magnitude weaker”. The “binding signal to BIM and BRD together relative to BRD alone” value ([6]; complex of 6xHis-MBP-BRD and MBP-BIM vs 6xHis-MBP-BRD, 50 nM biotinylated H3 (1–22), pH 7.4, n = 3, Fig. S9D) was “stronger than BRD alone”.
